Earlier results on 14 compounds are cited in patent US20240350592A1, “COMPOSITION AND METHODS OF TREATMENT USING […]-ENHANCED SUPPLEMENTATION” (Xygenyx Inc., priority 2023, published 2024).

Square brackets hold non-standard residues; d marks the D form. Peptide text beside a SMILES is read from it. Cit = NC(=O)NCCC[C@H](N)C(=O)O

In one series the test system is coronary disease. Particulars: dietary supplementation, doses up to 400 IU/day.
The next series deals with F2-isoprostane. The conditions noted are these: doses of 1600-3200 IU/day.
Series [1] relates to neurodegenerative diseases such as Alzheimer's Syndrome or dementia. The conditions noted are these: dietary supplementation, doses up to 400 IU/day; controlled trials.
The conditions of series [2]: compared to α-tocopherol taken as 1.0.
The next series relates to markers of inflammation. The conditions noted are these: individuals with metabolic syndrome.
The conditions of series [3]: even when dietary intake occurs in equal portions.
Series [4] concerns wide dynamic range neurons in the ventroposterolateral nucleus of the thalamus.
Another series deals with depression. The conditions noted are these: patients who did not respond to traditional antidepressant medications.
The test system of series [5] is skin. The conditions noted are these: topical formulations; within four weeks of treatment.
The subject of the next series is rheumatoid arthritis. The conditions noted are these: arthritic subjects.
For series [6] the following is noted: single penetration enhancer.
For series [7] the following is noted: in vivo.
The conditions of series [8]: in vivo. This is another data set of the same source.
The subject of series [9] is skin. The conditions noted are these: topical, concentrations 0.5-5%.

For `Cc1c(C)c2c(c(C)c1O)CC[C@@](C)(CCC[C@H](C)CCC[C@H](C)CCCC(C)C)O2` [α-tocopherol], the “reduction of the risk of coronary disease” value in the series with coronary disease is reported as “up to 34%”. In the series on F2-isoprostane, the “blood plasma concentration of F2-isoprostane” value was “significantly lower”. The “reduction of the risk of developing neurodegenerative diseases” value in [1] is at most 24%.

On to `Cc1cc(O)cc2c1O[C@](C)(CCC[C@H](C)CCC[C@H](C)CCCC(C)C)CC2` [δ-tocopherol], for which the relative biological activity in series [2] is listed as 0.03. Moreover, the “markers of inflammation in the blood” value in the series on markers of inflammation is recorded as “reduced”.

In the case of `Cc1c(O)cc2c(c1C)O[C@](C)(CCC[C@H](C)CCC[C@H](C)CCCC(C)C)CC2` [γ-tocopherol], the “concentration in vivo relative to α-tocopherol” value in [3] was “roughly 10%”. The relative biological activity in series [2] was 0.1.

As for `CCCCCc1cc(O)c2c(c1)OC(C)(C)C1CCC(C)=CC21` (stereo not shown) [THC, Δ-9-tetrahydrocannabinol], the “power in mediating pain compared to morphine” value in series [4] is “ten times more powerful than morphine”.

For `CN1c2c([nH]c(N)nc2=O)NCC1CNc1ccc(C(=O)N[C@@H](CCC(=O)O)C(=O)O)cc1` (stereo partly shown) [5-MTHF, 5-methyltetrahydrofolate], the symptoms of depression result in the series with depression is “improved”.

Take `CC[C@H](C)[C@H](NC(=O)[C@H](CC(=O)O)NC(=O)[C@@H](N)CCCCN)C(=O)N[C@@H](CCCNC(N)=O)C(N)=O` [tripeptide-10 citrulline, Tripeptide-10 citrulline] (H-KDI[Cit]-NH2): in the series on skin [5], the improvement of suppleness is listed as at most 54%.

Regarding `C=C1CC/C=C(\C)CC[C@@H]2[C@@H]1CC2(C)C` [β-caryophyllene], in the series with rheumatoid arthritis, the “number of circulating and articular leukocytes” value is given as “reduced”; the “swelling of joints and lymph nodes” value is on record as “reduced”.

In the case of `CC12CCC(CC1)C(C)(C)O2` [eucalyptol, 1,8-epoxy-p-menthane], the “factor of increase of transdermal drug uptake” value in series [6] is given as “more than 10”.

Consider “HGH: hormone comprising a peptide chain that is synthesized in the pituitary gland”, for which the biological half-life in series [7] is 10-20 minutes.

Turning to `CCNC(=O)CC[C@H](N)C(=O)O` [Theanine], in series [8], the “dose generally considered safe and well-tolerated” value is recorded as “up to 400 mg per day”.

For the compound `Cc1cc(O)c(C)c2c1O[C@](C)(CCC[C@H](C)CCC[C@H](C)CCCC(C)C)CC2` [β-tocopherol], the relative biological activity in series [2] was 0.5.

For `C/C(=C\CO)CCC[C@H](C)CCC[C@H](C)CCCC(C)C` [Phytol], the solubility in water entry was “nearly insoluble in water”.

With `C=CCCCCCCCCC(=O)N[C@@H](Cc1ccccc1)C(=O)O` [UP, Undecylenoyl phenylalanine], the “time of treatment to skin lightening effects” value with skin [9] is given as at least 7 days.

Turning to `CC(C)[C@@H]1CC[C@@H](C)C[C@H]1O` [Menthol], the “factor of increase of transdermal drug uptake” value in series [6] is at least 10.
